Source: PubChem BioAssay (NCI)
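Interpolation was linear, between the two tested concentrations surrounding the appropriate level; five concentrations were tested over 48 hours in 96-well plates. GI50 marks 50% less growth. Definition used: TGI = concentration required for complete inhibition of growth.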

Assays:
Experiment in all cases: growth of human tumour cells (NCI), 48 h
PC-3 prostate = system: PC-3 prostate
HT29 colon = system: HT29 colon
SF-268 CNS = system: SF-268 CNS
ACHN renal = system: ACHN renal
RXF 393 renal = system: RXF 393 renal
EKVX NSCLC = system: EKVX NSCLC
OVCAR-8 ovarian = system: OVCAR-8 ovarian
BT-549 breast = system: BT-549 breast

| SMILES | TGI (PC-3 prostate) | TGI (HT29 colon) | TGI (SF-268 CNS) | TGI (ACHN renal) | TGI (RXF 393 renal) | TGI (EKVX NSCLC) | TGI (OVCAR-8 ovarian) | TGI (BT-549 breast) | GI50 (PC-3 prostate) | GI50 (HT29 colon) | GI50 (SF-268 CNS) | GI50 (ACHN renal) | GI50 (RXF 393 renal) | GI50 (EKVX NSCLC) | GI50 (OVCAR-8 ovarian) |
| --- | --- | --- | --- | --- | --- | --- | --- | --- | --- | --- | --- | --- | --- | --- | --- |
| CCOC(=O)c1c(SC(=O)c2cc(OC)c(OC)c(OC)c2)n(-c2ccccc2)c(=S)n(-c2ccccc2)c1=O | > 100 µM | > 100 µM | > 100 µM | > 100 µM | > 100 µM | > 100 µM | > 100 µM | – | – | – | – | – | – | – | – |
| CN(C)CCCn1c(Cc2ccccc2)nc2cc(C(F)(F)F)ccc21 | > 100 µM | 42.4 µM | > 100 µM | > 100 µM | 67.8 µM | 67.6 µM | > 100 µM | 92.4 µM | – | – | – | – | – | – | – |
| COc1cc(Oc2nc3ccccc3nc2C(=O)O)cc(OC)c1OC | > 100 µM | > 100 µM | > 100 µM | > 100 µM | > 100 µM | > 100 µM | > 100 µM | > 100 µM | – | – | – | – | – | – | – |
| Cc1cc(S(=O)(=O)Nc2nc3ccsc3c(=O)n2N)c(S)cc1Cl | > 100 µM | > 100 µM | > 100 µM | > 100 µM | – | > 100 µM | > 100 µM | > 100 µM | – | – | – | – | – | – | – |
| CC1(C)C2CCC1(CS(=O)(=O)Nc1ccccc1)C(=O)C2 (centres undefined) | > 100 µM | > 100 µM | > 100 µM | > 100 µM | > 100 µM | > 100 µM | > 100 µM | > 100 µM | – | – | – | – | – | – | – |
| COC(=O)c1c(OC(C)=O)ccc2c1c1c(OC(C)=O)c3ccccc3c(OC(C)=O)c1n2Cc1cc(OC)cc(OC)c1 | > 100 µM | > 100 µM | > 100 µM | > 100 µM | > 100 µM | 26.7 µM | > 100 µM | 82.1 µM | – | – | – | – | – | – | – |
| O=C1Cc2c(-c3ccc(Cl)cc3)cc(-c3ccccc3)nc2-c2ccccc2N1 | > 100 µM | > 42.8 µM | 48.9 µM | 28.3 µM | 20.3 µM | > 56.8 µM | 11.6 µM | 50.7 µM | – | – | – | – | – | – | – |
| COCn1c2ccc(OC(C)=O)cc2c2c(=O)oc(C)nc21 | > 100 µM | > 100 µM | > 100 µM | > 100 µM | > 100 µM | > 100 µM | > 100 µM | > 100 µM | – | – | – | – | – | – | – |
| CCN1CCN(C(=O)[C@]23CC[C@@H](C)[C@H](C)[C@@H]2C2=CC[C@@H]4[C@@]5(C)C/C(=C/c6cccnc6)C(=O)C(C)(C)[C@@H]5CC[C@@]4(C)[C@]2(C)CC3)CC1 | 3.85 µM | 5.36 µM | 4.02 µM | 6.45 µM | 2.83 µM | 7.32 µM | 6.29 µM | – | 1.49 µM | 1.93 µM | 1.77 µM | 2.46 µM | 1.45 µM | 2.17 µM | 2.32 µM |
| CCSc1ncnc2c(C3OC(CO)C(O)C3O)nsc12 (centres undefined) | > 100 µM | > 100 µM | > 100 µM | – | > 100 µM | > 100 µM | > 100 µM | – | – | – | – | – | – | – | – |
| CCCC(Sc1nc(N)nc2nc[nH]c12)C(=O)O (centres undefined) | > 100 µM | > 100 µM | > 100 µM | > 100 µM | > 100 µM | – | > 100 µM | > 100 µM | – | – | – | – | – | – | – |
| C[C@]12CC[C@H]3[C@@H](CCC4=CC(=O)C=C[C@@]43O)[C@@H]1CCC2=O | > 100 µM | – | – | > 100 µM | > 100 µM | > 100 µM | > 100 µM | > 100 µM | – | – | – | – | – | – | – |
| Cc1ccc(S(=O)(=O)NC(=O)NC(Cc2c[nH]c3ccccc23)C(=O)O)cc1 (centres undefined) | > 100 µM | > 100 µM | > 100 µM | – | > 100 µM | – | > 100 µM | > 100 µM | – | – | – | – | – | – | – |
| CCOC(=O)C1=CN=C2C(=O)N(c3ccccc3)N(C)C2(C)C1=N (centres undefined) | > 100 µM | – | – | > 100 µM | > 100 µM | > 100 µM | > 100 µM | > 100 µM | – | – | – | – | – | – | – |
| O=S(=O)(c1cc(Cl)ccc1Cl)N1CCN(S(=O)(=O)c2cc(Cl)ccc2Cl)CC1 | > 100 µM | > 100 µM | > 100 µM | > 100 µM | > 100 µM | – | > 100 µM | > 100 µM | – | – | – | – | – | – | – |
| CCNC(=S)N/N=C/c1cc(OC)ccc1O | > 100 µM | > 100 µM | > 100 µM | > 100 µM | > 100 µM | > 100 µM | > 100 µM | – | – | – | – | – | – | – | – |
| CC1CN=C(Nc2cccc(C(F)(F)F)c2)S1 (centres undefined) | – | > 100 µM | > 100 µM | > 100 µM | > 100 µM | > 100 µM | – | > 100 µM | – | – | – | – | – | – | – |
| Nn1c(Cc2ccc(Cl)cc2)n[nH]c1=O | – | > 100 µM | > 100 µM | > 100 µM | > 100 µM | > 100 µM | > 100 µM | – | – | – | – | – | – | – | – |
| CCN(CC)CCCCCCCCNc1c2ccc(Cl)cc2nc2ccc(OC)cc12 | 4.06 µM | 2.25 µM | 3.76 µM | 2.5 µM | 2.09 µM | 6.13 µM | 3.64 µM | – | 1.64 µM | 0.597 µM | 1.7 µM | 1.03 µM | 0.763 µM | 2.11 µM | 1.39 µM |
| COc1cc(C2c3cc4c(cc3C(O)C3CCC(=O)N23)OCO4)cc(OC)c1OC (centres undefined) | > 100 µM | 76.7 µM | > 100 µM | > 100 µM | – | > 100 µM | > 100 µM | 66.1 µM | – | – | – | – | – | – | – |
| CC(=O)Nc1ccc(S(=O)(=O)Nc2nnc(S(N)(=O)=O)s2)cc1 | – | > 100 µM | > 100 µM | > 100 µM | > 100 µM | > 100 µM | – | > 100 µM | – | – | – | – | – | – | – |
| CC(=O)N1N=C(c2c(O)ccc3ccccc23)CC1C(=O)c1ccco1 (centres undefined) | > 100 µM | > 100 µM | > 100 µM | > 100 µM | > 100 µM | – | > 100 µM | 45 µM | – | – | – | – | – | – | – |
| Cc1nc2c(cc1C(=O)NN)c(=O)n(C)c(=O)n2C | > 100 µM | > 100 µM | – | > 100 µM | > 100 µM | > 100 µM | > 100 µM | > 100 µM | – | – | – | – | – | – | – |
| CSC1=Nc2ccccc2-c2nc(-c3ccccc3)cc(-c3ccccc3)c2C1 | > 100 µM | > 100 µM | – | 41.8 µM | 45 µM | > 100 µM | > 100 µM | > 100 µM | – | – | – | – | – | – | – |
| C=CCOc1ccc(C2c3c([nH][nH]c3=O)CC(O)(OCC)C2C(=O)OCC)cc1OC (centres undefined) | > 100 µM | > 100 µM | > 100 µM | > 100 µM | – | > 100 µM | > 100 µM | – | – | – | – | – | – | – | – |
| Cc1cccc2c1C(=O)C1(Cc3ccccc3C1=O)C2 (centres undefined) | > 100 µM | > 100 µM | > 100 µM | > 100 µM | > 100 µM | > 100 µM | > 100 µM | – | – | – | – | – | – | – | – |
